Source: patent US9550755B2, “Complement pathway modulators and uses thereof” (NOVARTIS AG, priority 2012, dated 2017)

Target: Recombinant human factor D (Homo sapiens (Human), UniProt P00746)
Experiment: Human Complement Factor D Assay: Method 1
Format: biochemical
Details: recombinant human factor D 10 nM; substrate Z-Lys-thiobenzyl; fluorescence readout; read-out: IC50 (μM), Factor D inhibition using Method 1
Description: Human Complement Factor D Assay: Method 1
Recombinant human factor D (expressed in E. coli and purified using standard methods) at 10 nM concentration is incubated with test compound at various concentrations for 1 hour at room temperature in 0.1 M Hepes buffer, pH 7.5, containing 1 mM MgCl2, 1 M NaCl and 0.05% CHAPS. A synthetic substrate Z-Lys-thiobenzyl and 2,4-dinitrobenzenesulfonyl-fluoresceine are added to final concentrations of 200 μM and 25 μM, respectively. The increase in fluorescence is recorded at excitation of 485 nm and emission at 535 nm in a microplate spectrofluorimeter. IC50 values are calculated from percentage of inhibition of complement factor D-activity as a function of test compound concentration.

Chain of Recombinant human factor D (P00746 26-253): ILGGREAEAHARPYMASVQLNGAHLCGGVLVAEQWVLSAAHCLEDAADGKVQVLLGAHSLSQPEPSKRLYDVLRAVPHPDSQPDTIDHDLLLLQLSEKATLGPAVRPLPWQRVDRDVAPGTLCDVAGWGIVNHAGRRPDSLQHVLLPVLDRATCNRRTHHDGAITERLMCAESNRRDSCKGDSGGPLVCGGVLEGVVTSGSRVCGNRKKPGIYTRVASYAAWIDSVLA

SMILES: NC(=O)c1nn(CC(=O)N2[C@@H]3C[C@@H]3C[C@H]2C(=O)Nc2ccn(CC(F)(F)F)n2)c2ccccc12 [Example 1, 1-(2-oxo-2-((1R,3S,5R)-3-(1-(2,2,2-trifluoroethyl)-1H-pyrazol-3-ylcarbamoyl)-2-azabicyclo[3.1.0]hexan-2-yl)ethyl)-1H-indazole-3-carboxamide]
- IC50: 0.064 µM

SMILES: CC(=O)c1nn(CC(=O)N2[C@@H]3C[C@@H]3C[C@H]2C(=O)Nc2ccn(CC(F)(F)F)n2)c2cnccc12 [Example 3, (1R,3S,5R)-2-(2-(3-acetyl-1H-pyrazolo[3,4-c]pyridin-1-yl)acetyl)-N-(1-(2,2,2-trifluoroethyl)-1 H-pyrazol-3-yl)-2-azabicyclo[3.1.0] hexane-3-carboxamide]
- IC50: 0.083 µM

SMILES: NC(=O)n1cc(NC(=O)N2[C@@H]3C[C@@H]3C[C@H]2C(=O)Nc2ccn(CC(F)(F)F)n2)c2ccccc21 [Example 5, (1R,3S,5R)—N2-(1-carbamoyl-1H-indol-3-yl)-N3-(1-(2,2,2-trifluoroethyl)-1H-pyrazol-3-yl)-2-azabicyclo[3.1.0]hexane-2,3-dicarboxamide]
- IC50: 0.032 µM

SMILES: CC(C)n1ccc(NC(=O)[C@@H]2C[C@H]3C[C@H]3N2C(=O)Cn2nc(C(N)=O)c3ccccc32)n1 [Example 4, 1-(2-((1R,3S,5R)-3-(1-isopropyl-1H-pyrazol-3-ylcarbamoyl)-2-azabicyclo[3.1.0]hexan-2-yl)-2-oxoethyl)-1H-indazole-3-carboxamide]
- IC50: 0.17 µM

SMILES: NC(=O)c1nn(CC(=O)N2[C@@H]3C[C@@H]3C[C@H]2C(=O)Nc2ccn(CC(F)(F)F)n2)c2cnccc12 [Example 2, 1-(2-oxo-2-((1R,3S,5R)-3-((1-(2,2,2-trifluoroethyl)-1H-pyrazol-3-yl)carbamoyl)-2-azabicyclo[3.1.0]hexan-2-yl)ethyl)-1H-pyrazolo[3,4-c]pyridine-3-carboxamide]
- IC50: 0.098 µM
